Data from US6548053B1, “Control of intra-ocular pressure” (The University of Birmingham, priority 1999, dated 2003).

Key:
Assay type in all cases: in vivo, human
healthy male volunteers = experiment: Clinical study: intra-ocular pressure (Goldmann applanation tonometer) under oral carbenoxolone; details: for reduction in IOP during the day (08:00 to 20:00 hrs): baseline reduction 0.38±1.16; for reduction in IOP during the day (08:00 to 20:00 hrs), percent: baseline 2.51%; for IOP of one subject vs days 1 and 2 (FIG. 3): both eyes
Procedure: (§1) A clinical study was undertaken to assess the functional significance of 11β-HSD within the eye by oral administration of carbenoxolone, a known inhibitor of both 11β-HSD1 and 11β-HSD2. The study was undertaken on eight healthy male volunteers who were not on any systemic or topical medications and had no family history of glaucoma. Baseline intra-ocular pressure readings were measured using the same Goldmann applanation tonometer at 08:00, 12:00, 16:00 and 20:00 hours on two consecutive days. Systolic and diastolic blood pressures were also measured at each time point. Venous blood was analysed for serum electrolytes on day one and urine was collected for 24-hour urinary free cortisol and GC/MS for cortisol/cortisone ratios. The subjects then commenced a course of 100 mg carbenoxolone taken orally three times a day for seven consecutive days. The IOP measurements and blood pressure recordings were repeated at each time point on the third and seventh day of carbenoxolone ingestion (i.e. days five and nine of the study). Urea and electrolytes were also measured on these days and inhibition of 11β-HSD was confirmed by comparing the original urinary F/E ratio with that from urine aliquoted from a further 24-hour collection performed between days six and seven of ingestion. […] There was no difference between each eye of each subject. The IOP was lower on day seven of ingestion (11.50±2.08) than on day three (12.48±1.48) compared with the mean baseline values (p<0.0001 for both days), the difference between days three and seven being significant (p<0.001). There was also a small reduction in intra-ocular pressure during the course of the day, i.e. from 08:00 hrs to 20:00 hrs (baseline reduction of0.38±1.16 (2.51%), p=0.076).

11β-HSD = experiment: Clinical study: urinary free cortisol and GC/MS urinary steroid ratios confirming inhibition of 11β-HSD
Procedure: as §1, with “In addition, there” for “There”, “a significant decrease in” for “no difference between each eye of each subject. The IOP was lower on day seven of ingestion (11.50±2.08) than on day three (12.48±1.48) compared with”, “tetrahydrocortisol (THF)+allo-THF/tetrahydrocortisone (THE) ratio (pre-THF+allo-THF/THE=0.92±0.23, per-THF+allo-THF/THE=0.7±0.19, p=0.0012). This reflects” for “mean baseline values (p<0.0001 for both days),”, “relative 11β-HSD1/HSD2 activities predominantly” for “difference between days three and seven being significant (p<0.001). There was also a small reduction”, “in” for “in intra-ocular pressure during”, “liver.” for “course of the day, i.e. from 08:00 hrs to 20:00 hrs (baseline reduction of0.38±1.16 (2.51%), p=0.076).”

[1] = Clinical study: systolic and diastolic blood pressure and serum electrolytes; details: throughout the study, 100 mg orally three times a day for seven days
Procedure: A clinical study was undertaken to assess the functional significance of 11β-HSD within the eye by oral administration of carbenoxolone, a known inhibitor of both 11β-HSD1 and 11β-HSD2. The study was undertaken on eight healthy male volunteers who were not on any systemic or topical medications and had no family history of glaucoma. Baseline intra-ocular pressure readings were measured using the same Goldmann applanation tonometer at 08:00, 12:00, 16:00 and 20:00 hours on two consecutive days. Systolic and diastolic blood pressures were also measured at each time point. Venous blood was analysed for serum electrolytes on day one and urine was collected for 24-hour urinary free cortisol and GC/MS for cortisol/cortisone ratios. The subjects then commenced a course of 100 mg carbenoxolone taken orally three times a day for seven consecutive days. The IOP measurements and blood pressure recordings were repeated at each time point on the third and seventh day of carbenoxolone ingestion (i.e. days five and nine of the study). Urea and electrolytes were also measured on these days and inhibition of 11β-HSD was confirmed by comparing the original urinary F/E ratio with that from urine aliquoted from a further 24-hour collection performed between days six and seven of ingestion.
There was no difference between each eye of each subject. […]

SMILES: CC1(C)[C@@H](OC(=O)CCC(=O)O)CC[C@]2(C)[C@H]3C(=O)C=C4[C@@H]5C[C@@](C)(C(=O)O)CC[C@]5(C)CC[C@@]4(C)[C@]3(C)CC[C@@H]12 [carbenoxolone]
- reduction in IOP during the day (08:00 to 20:00 hrs) (healthy male volunteers; day seven of ingestion, p=0.0006): 2.25±1.91
- reduction in IOP during the day (08:00 to 20:00 hrs), percent (healthy male volunteers; day seven of ingestion): 17.31%
- reduction in IOP during the day (08:00 to 20:00 hrs) (healthy male volunteers; day three of ingestion, p=0.0058): 0.86±0.83
- reduction in IOP during the day (08:00 to 20:00 hrs), percent (healthy male volunteers; day three of ingestion): 6.51%
- per-IOP (mean IOP on ingesting carbenoxolone) (healthy male volunteers; eight subjects, 100 mg orally three times a day, pre-IOP 14.7±1.39): 12.00±1.87
- IOP on day seven of ingestion (healthy male volunteers; eight subjects, day seven of ingestion (study day 9), p<0.0001 vs mean baseline): 11.50±2.08
- IOP on day three of ingestion (healthy male volunteers; eight subjects, day three of ingestion (study day 5), p<0.0001 vs mean baseline): 12.48±1.48
- subjects showing a decrease in IOP (healthy male volunteers; eight subjects, drop significant in seven individuals (<0.01)): All eight subjects showed a decrease in IOP
- overall reduction in IOP (healthy male volunteers; mean of eight subjects, 100 mg orally three times a day for seven days, vs pre-IOP 14.7±1.39, p<0.000001): 18.2%
- IOP of one subject vs days 1 and 2 (FIG. 3) (healthy male volunteers; day 5 (third day of ingestion)): generally lower
- IOP of one subject vs days 1 and 2 (FIG. 3) (healthy male volunteers; day 9 (seventh day of ingestion)): even lower
- 24-hour urinary free cortisol (11β-HSD; 24-hour urine between days six and seven of ingestion vs baseline): no significant change
- per-F/E (urinary cortisol/cortisone ratio by GC/MS) (11β-HSD; 24-hour urine between days six and seven of ingestion, pre-F/E 0.497±0.189, p=0.004): 1.144±0.382
- per-THF+allo-THF/THE ratio (11β-HSD; urine on ingestion, pre value 0.92±0.23, p=0.0012): 0.7±0.19
- serum electrolytes [1]: remained stable
- systolic and diastolic blood pressures [1]: remained stable
